The subject of one data set is endothelial cells. Put plainly: Endothelial cell (EC) migration assay. The class given is cell-based. An excerpt:
In this experiment, the effects of VEGF, FGF and nicotine in an endothelial cell (EC) migration assay were observed. The EC migration assay involves growing a confluent endothelial monolayer, and then scraping away half of the cells. The number of endothelial cells that migrate over time into the denuded region was observed. Unstimulated cells will migrate into the region. Angiogenic agents will accelerate this migration.
In this histogram shown in FIG. 8, the number of migrating cells is expressed as a percentage of the number of endothelial cells migrating into the region under unstimulated conditions.

Data set [1] deals with C57BL/6J mice. Briefly: Disc angiogenesis system (DAS), fibrovascular growth into implanted disc. Format: in vivo. To be noted: for angiogenesis in comparison to vehicle: locally in disc pellet: bFGF 20 mcg, Del-1 0.2 M, nicotine 10^-6 M; for effect on nicotine-induced fibrovascular growth (systemic nicotine) / effect on nicotine-induced fibrovascular growth (local nicotine): oral supplementation: LNNA 6 mg/ml, indomethacin 20 mcg/ml; for effect on nicotine-induced fibrovascular growth (systemic nicotine): nicotine in drinking water; for effect on nicotine-induced fibrovascular growth (local nicotine): nicotine inside the DAS. An excerpt: To study whether nicotine induces angiogenesis in vivo, we employed the disc angiogenesis system (DAS) (Kowalski et al. (1992) Exp Mol Pathol 56(1):1-19; Fajardo et al. (1998) Lab Invest 58:718-7244).
Preparation of the disc. The DAS consisted of a disc (11 mm in diameter and 1 mm thickness) made of a polyvinyl alcohol sponge (Kanebo PVA, RippeyCo., Santa Clara, Calif.). Both sides were covered with nitrocellulose cell-impermeable filters (Millipore filters, […] in pore diameter, Millipore, SF, Calif.) of the same diameter as the sponge disc, fixed to the sponge using Millipore glue#1 (xx70000.00, Millipore). As a result, cells (and thus vessels) could penetrate or exit only through the rim of the disc (Kowalski et al. (1992) Exp Mol Pathol 56(1):1-19; Fajardo et al. (1998) Lab Invest 58:718-7244).
In order to study the local effect of nicotine on angiogenesis, nicotine was placed in a pellet which was added directly to the disc. Briefly, a 1.5-mm core (pellet) was cut from the disc center. Both the pellets and discs were sterilized prior to assembly in a laminar flow hood. The pellet was loaded with up to 20 mcl of the nicotine solution and subsequently air-dried. We placed in the disc pellets with either vehicle (PBS, Sigma, Chemical Co., St Louis, Mo., n=5) or nicotine (10^-6 M, Aldrich Chemical Company, Milwaukee, Wis., n=5) to study the effects of locally administered nicotine. For comparison, in some cases basic fibroblast growth factor (bFGF; 20 mcg) or Del-1 protein (0.2 M) was added to the pellet, rather than nicotine. Both bFGF and Del-1 are known to induce angiogenesis. The pellet was then coated with ethylene-vinyl acetate co-polymer (Elvax, Dupont, Chemcentral Corp., Chicago, Ill.) which would permit slow release of the nicotine from the pellet into the disc. The pellet was then re-inserted into the disc before sealing the disc with the millipore filters.
To study the systemic effects of nicotine, in some cases the animals were administered nicotine in their drinking water (see below).
Implantation of the disc. The mice were anesthetized with 4% chloralhydrate [intraperitoneal administration (i.p.), 0.1 cc/10 g body weight]. The flanks and posterior surface of the thorax were shaved and cleaned with saturated 70% isopropyl alcohol. A 2-cm incision was made in the skin of the flank contra-lateral to the implantation site. Blunt dissection through the subcutaneous tissue produced a channel into which the saline moistened disc was inserted. The skin was closed with 5.0 silk suture (Kowalski et al. (1992) Exp Mol Pathol 56(1):1-19; Fajardo et al. (1998) Lab Invest 58:718-7244).
Disc removal and preparation. Two weeks after disc implantation, the mice were sacrificed with an overdose of 4% chloral hydrate (i.p.) and cervical dislocation. A careful incision was made next to the skin overlying the implanted disc, and the disc was gently removed from the implantation site. Attached tissue was carefully detached from the disc. After removing the disc, one filter was separated from the disc. Discs were then fixed in 10% formalin and embedded flat in paraffin. Subsequently, […] sections were made in a plane through the center of the disc and parallel to the disc surface.
Quantitation of results. The disc sections were stained with H&E for light microscopy and histomorphometric measurement of radial growth, and stained with toluidine blue for quantitative determination of total area of fibrovascular growth. Using a video microscope and a computer assisted digital image analysis system (NIH Image 1.59b9), the entire area of fibrovascular growth in the toluidine blue stained disc was calculated and expressed in mm^2. As described in a previous study, total fibrovascular growth area is directly proportional to the total area of the disc occupied by blood vessels (Kowalski et al. (1992) Exp Mol Pathol 56(1):1-19; Fajardo et al. (1998) Lab Invest 58:718-7244).

Data set [2] deals with C57BL/6J mice. On the procedure: Murine Ischemic Hindlimb Model of Peripheral Arterial Disease (PAD). Mice were anesthetized with 4% chloral hydrate [intraperitoneal administration (i.p.), 0.1 cc/10 g body weight). The medial surface of both hindlimbs were shaved and then cleaned with betadine solution. A 1.5-cm longitudinal incision was performed, extending from the knee to the inguinal ligament. Through this incision, the superficial femoral artery was dissected free along its length. After the distal ends of both the external iliac and superficial femoral arteries were ligated with 7.0 (Ethicon), complete excision of the femoral artery was performed. An additional set of mice underwent sham operation. The incisions were then closed with discontinuous stitches of 5.0 silk suture (Ethicon). Ampicillin (1 mg/10 gm body weight) intraperitoneal injection was administered after surgical procedure.
Tissue Preparation. Three weeks after surgery, mice were euthanized with an overdose of 4% chloral hydrate (i.p) and cervical dislocation, and the adductor and semimembranous muscles were collected for capillary density assessment. Briefly, a longitudinal incision in the medial thigh was made to expose the entire hindlimb muscle. The adductor and semimembranous muscles were removed and immediately frozen in OCT. Subsequently, sections 5 μm were taken from the mid-region of each muscle in a transverse orientation. The sections were air dried and fixed in acetone.
Capillary Densitometry. Immunohistochemistry was performed using an alkaline phosphatase assay to identify the endothelial cells. An eosin counterstain was used to differentiate myocytes. Capillaries and myocytes were identified and counted using light microscopy (20×). For each section, four different fields were selected and the total number of capillaries and myocytes per field determined. These values were averaged to provide a determination of capillary density for each experimental limb. To ensure that value for capillary density was not overestimated due to muscle atrophy, or underestimated due to interstitial edema, capillary density was expressed as a ratio of capillaries to myocytes present in the same field.
Daily intramuscular injections of nicotine solution or vehicle were administered (50 μl ) for a period of three weeks.

Setting [3] is: VEGF 1 ng/ml, FGF, nicotine (FIG. 8).
Where [4] appears, read: highest dose (3200 ng/kg = 3.2 μg/kg) i.m. daily for three weeks.

The results in this text go back to patent US7598275B2, “Nicotine in therapeutic angiogenesis and vasculogenesis” (priority 1999, dated 2009).

Take `CN(C)C(=O)Oc1cccc([N+](C)(C)C)c1` [neostigmine]: the “increase of EC migration” value in the data set with endothelial cells (10^−6 M alone, relative to unstimulated cells) is “over 50%”.

Consider `CN1CCC[C@H]1c1cccnc1` [nicotine, S-3-(1-methyl-2-pyrrolidinyl)pyridine], for which the “angiogenic potency relative to growth factors tested in DAS (Del1, bFGF)” value in the data set with C57BL/6J mice [1] (local effects in the disc angiogenesis system) is reported as “as or more potent”. Moreover, the “area of fibrovascular growth into the disc” value in the data set with C57BL/6J mice [1] (local nicotine, 10^-6 M in pellet inside the disc, basal about 10 mm^2) is given as “about 20 mm^2”. Further, in the data set with C57BL/6J mice [1], the “angiogenesis in comparison to vehicle” value is given as “increased angiogenesis to the same degree”. In addition, in the data set with C57BL/6J mice [1] (systemic nicotine (drinking water) compared with nicotine in disc), the “angiogenesis, systemic versus local nicotine administration” value is reported as “greater than local nicotine administration”. Also, the “angiogenesis, systemic administration versus locally administered bFGF and Del-1” value with C57BL/6J mice [1] (systemic nicotine (drinking water), FIG. 4) is “much greater degree”. The “area of fibrovascular growth into the disc” value in the data set on C57BL/6J mice [1] (systemic nicotine, 60 mcg/ml in drinking water, disc removed two weeks after implantation, basal somewhat greater than 10 mm^2) stood at 35 mm^2. Also, the “EC migration, number of migrating cells relative to unstimulated conditions” value in the data set with endothelial cells (setting [3]) is listed as “same degree”. In addition, in the data set on C57BL/6J mice [2] (0.03 μg/kg i.m. daily for three weeks, vehicle control 0.35), the “capillary density in the ischemic limb” value was determined as 0.67 capillaries/myocyte. Besides, in the data set with C57BL/6J mice [2] (setting [4]), the “angiogenic response in the ischemic limb at the highest dose” value is recorded as “angiogenesis was not increased”; the “toxicity at the highest dose (interstitial edema and myocyte necrosis)” value is given as “some toxicity was observed”. Moreover, the “angiogenic effect in non-ischemic hindlimbs” value in the data set on C57BL/6J mice [2] (untreated non-ischemic limb of animals given i.m. nicotine in the ischemic limb) is “no angiogenic effect was detected”.

Turning to `NC(=NCCC[C@H](N)C(=O)O)N[N+](=O)[O-]` [LNNA, L, nitro-arginine], in the data set on C57BL/6J mice [1], the “effect on nicotine-induced fibrovascular growth (systemic nicotine)” value is reported as “blocked” and the “effect on nicotine-induced fibrovascular growth (local nicotine)” value is recorded as “blocked the effects of nicotine”.

`COc1ccc2c(c1)c(CC(=O)O)c(C)n2C(=O)c1ccc(Cl)cc1` [indomethacin]: in the data set with C57BL/6J mice [1], the “effect on nicotine-induced fibrovascular growth (systemic nicotine)” value is “blocked” and the “effect on nicotine-induced fibrovascular growth (local nicotine)” value is “blocked the effects of nicotine”.

“bFGF: basic fibroblast growth factor, known to induce angiogenesis”: in the data set with C57BL/6J mice [1], the “angiogenesis in comparison to vehicle” value is reported as “increased angiogenesis to the same degree”.

As to VEGF, the “EC migration, number of migrating cells relative to unstimulated conditions” value with endothelial cells (setting [3]) is “increases EC migration to the same degree as FGF or Nicotine”; with endothelial cells (high dose VEGF 10 ng/ml) it was “greatest response”.

B1: Del1: Del-1 protein, known to induce angiogenesis (protein, UniProt O43854 24-480, looked up)
EGF-like repeat and discoidin …: DICDPNPCENGGICLPGLADGSFSCECPDGFTDPNCSSVVEVASDEEEPTSAGPCTPNPCHNGGTCEISEAYRGDTFIGYVCKCPRGFNGIHCQHNINECEVEPCKNGGICTDLVANYSCECPGEFMGRNCQYKCSGPLGIEGGIISNQQITASSTHRALFGLQKWYPYYARLNKKGLINAWTAAENDRWPWIQINLQRKMRVTGVITQGAKRIGSPEYIKSYKIAYSNDGKTWAMYKVKGTNEDMVFRGNIDNNTPYANSFTPPIKAQYVRLYPQVCRRHCTLRMELLGCELSGCSEPLGMKSGHIQDYQITASSIFRTLNMDMFTWEPRKARLDKQGKVNAWTSGHNDQSQWLQVDLLVPTKVTGIITQGAKDFGHVQFVGSYKLAYSNDGEHWTVYQDEKQRKDKVFQGNFDNDTHRKNVIDPPIYARHIRILPWSWYGRITLRSELLGCTEEE
With B1, the “angiogenesis in comparison to vehicle” value in the data set on C57BL/6J mice [1] is reported as “increased angiogenesis to the same degree”.
